Measurements taken from patent US12162863B2, “Modulators of stimulator of interferon genes (STING)” (RYVU THERAPEUTICS S.A., priority 2018, dated 2024).

Tests used:
[1] = system: interferon regulatory factor (IRF) pathway in THP-1 dual cells; assay: THP-1 Dual Reporter Assay, IRF pathway (luciferase reporter); type: cell-based; details: Homo sapiens, THP1-Dual, 18 h of stimulation, luminescence
Outline: (§1)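 THP-1 dual cells stimulated 18 h with STING agonist; medium then sampled. IRF pathway: luciferase (ISG54 promoter/ISRE) read as luminescence immediately after reagent addition. NF-κB pathway: SEAP (IFN-β minimal promoter/NF-κB elements) developed 2 h at 37 °C, absorbance at 630 nm.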

human STING = human STING (Homo sapiens, UniProt Q86WV6); assay: Fluorescence Thermal Shift assay; type: binding; details: 50 μM compound; STING 0.1 mg/ml; 20 minutes preincubation; read-out: [hSTING] FTS, ΔTm [° C.] for 50 μM
Chain of human STING (Q86WV6 whole entry H232R): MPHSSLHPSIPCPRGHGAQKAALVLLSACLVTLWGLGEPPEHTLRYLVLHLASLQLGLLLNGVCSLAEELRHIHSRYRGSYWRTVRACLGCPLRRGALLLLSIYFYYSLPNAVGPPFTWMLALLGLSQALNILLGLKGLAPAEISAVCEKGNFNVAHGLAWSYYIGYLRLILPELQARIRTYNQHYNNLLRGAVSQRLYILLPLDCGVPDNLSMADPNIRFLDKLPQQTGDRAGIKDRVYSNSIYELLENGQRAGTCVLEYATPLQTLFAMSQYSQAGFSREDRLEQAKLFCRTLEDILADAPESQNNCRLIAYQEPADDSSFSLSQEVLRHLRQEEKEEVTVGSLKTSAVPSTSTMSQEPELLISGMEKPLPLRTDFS
Outline: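 Human STING at a final 0.1 mg/ml was preincubated with compound for 20 min in 50 mM Hepes, 150 mM NaCl, pH 7.5, then SyproOrange dye was added. Thermal unfolding ran from 25 to 99° C at 0.033° C/s, continuous ramp. Values are reported as ΔTm (° C).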

[2] = system: NF-κB pathway in THP-1 dual cells; assay: THP-1 Dual Reporter Assay, NF-κB pathway (SEAP reporter); type: cell-based; details: Homo sapiens, THP1-Dual, 18 h of stimulation, absorbance at 630 nm, read-out: THP1 Dual EC50 (μM) NFkB
Outline: as §1

| Structure (SMILES) | EC50 [1] [µM] | ΔTm at 50 µM (human STING) [°C] | EC50 [2] [µM] |
| --- | --- | --- | --- |
| O=c1c(CN(CCCn2ccnc2)Cc2ccncc2)coc2ccc(F)cc12 [Example 29, 6-fluoro-3-({[3-(1H-imidazol-1-yl)propyl][(pyridin-4-yl)methyl]amino}methyl)-4H-chromen-4-one] | ≤ 10 | > 2.5 | 10 to 20 |
| Cc1ccc2c(=O)c(CN(CCCc3cccnc3)Cc3ccncc3)c(C)oc2c1C [Example 55, 2,7,8-trimethyl-3-({[3-(pyridin-3-yl)propyl][(pyridin-4-yl)methyl]amino}methyl)-4H-chromen-4-one] | ≤ 10 | > 2.5 | ≤ 10 |
| CN1CCN(c2ccc3c(=O)c(CN(CCCn4ccnc4)Cc4ccncc4)coc3c2)CC1 [Example 12, 3-({[3-(1H-imidazol-1-yl)propyl](pyridin-4-ylmethyl)amino}methyl)-7-(4-methylpiper-azin-1-yl)-4H-chromen-4-one] | ≤ 10 | > 2.5 | 10 to 20 |
| Cc1oc2cc(Br)ccc2c(=O)c1CN(CCCc1cccnc1)Cc1ccncc1 [Example 64, 7-bromo-2-methyl-3-({[3-(pyridin-3-yl)propyl](pyridin-4-ylmethyl)amino}methyl)-4H-chromen-4-one] | ≤ 10 | > 2.5 | ≤ 10 |
| Cc1ccc2c(=O)c(CN(CCCn3ccnc3)Cc3ccnc(F)c3)coc2c1C [Example 26, 3-({[(2-fluoropyridin-4-yl)methyl][3-(1H-imidazol-1-yl)propyl]amino}methyl)-7,8-dimethyl-4H-chromen-4-one] | ≥ 20 | < 2.5 | ≥ 20 |
| Cc1ccc2c(=O)c(CN(CCCn3cnc4c(N)ncnc43)Cc3ccncc3)c(C)oc2c1C [Example 81, 3-({[3-(6-amino-9H-purin-9-yl)propyl][(pyridin-4-yl)methyl]amino}methyl)-2,7,8-trimethyl-4H-chromen-4-one] | ≥ 20 | > 2.5 | 10 to 20 |
| COc1cc(CN(CCCc2cccnc2)Cc2c(C)oc3cc(N4CCOCC4)c(F)cc3c2=O)ccn1 [Example 77, 6-fluoro-3-({[(2-methoxypyridin-4-yl)methyl][3-(pyridin-3-yl)propyl]amino}methyl)-2-methyl-7-(morpholin-4-yl)-4H-chromen-4-one] | ≤ 10 | < 2.5 | ≤ 10 |
| Cc1oc2ccccc2c(=O)c1CN(CCCn1ccnc1)Cc1ccncc1 [Example 36, 3-({[3-(1H-imidazol-1-yl)propyl][(pyridin-4-yl)methyl]amino}methyl)-2-methyl-4H-chromen-4-one] | ≤ 10 | > 2.5 | 10 to 20 |
| O=c1c(CN(CCCn2ccnc2)Cc2ccncc2)coc2cc(F)ccc12 [Example 11, 7-fluoro-3-({[3-(1H-imidazol-1-yl)propyl](pyridin-4-ylmethyl)amino}methyl)-4H-chromen-4-one] | 10 to 20 | < 2.5 | ≥ 20 |
| Cc1ccc2c(=O)c(CN(CCCn3ccnc3)Cc3ccncc3)coc2c1C [Example 5, 3-({[3-(1H-imidazol-1-yl)propyl](pyridin-4-ylmethyl)amino}methyl)-7,8-dimethyl-4H-chromen-4-one] | ≤ 10 | > 2.5 | ≤ 10 |
| Cc1oc2cc(Br)c(F)cc2c(=O)c1CN(CCCn1cnc2cncnc21)Cc1ccncc1 [Example 73, 7-bromo-6-fluoro-2-methyl-3-({[3-(9H-purin-9-yl)propyl][(pyridin-4-yl)methyl]amino}methyl)-4H-chromen-4-one] | 10 to 20 | > 2.5 | ≤ 10 |
| COc1cccc(-c2cc3occ(CN(CCCn4ccnc4)Cc4ccncc4)c(=O)c3cc2F)c1 [Example 57, 6-fluoro-3-({[3-(1H-imidazol-1-yl)propyl][(pyridin-4-yl)methyl]amino}methyl)-7-(3-methoxyphenyl)-4H-chromen-4-one] | ≥ 20 | > 2.5 | ≥ 20 |
| COc1ccc(-c2cc3occ(CN(CCCn4ccnc4)Cc4ccncc4)c(=O)c3cc2F)cc1 [Example 42, 6-fluoro-3-({[3-(1H-imidazol-1-yl)propyl][(pyridin-4-yl)methyl]amino}methyl)-7-(4-methoxyphenyl)-4H-chromen-4-one] | ≤ 10 | > 2.5 | ≤ 10 |

Other lines, results leading:

| EC50 [1] [µM] | ΔTm at 50 µM (human STING) [°C] | EC50 [2] [µM] | Structure (SMILES) |
| --- | --- | --- | --- |
| ≤ 10 | > 2.5 | ≤ 10 | O=c1c(CN(CCCn2cnc3ccccc32)Cc2ccncc2)coc2c1ccc1ccccc12 [Example 50, 3-({[3-(1H-1,3-benzodiazol-1-yl)propyl][(pyridin-4-yl)methyl]amino}methyl)-4H-benzo[h]chromen-4-one] |
| ≥ 20 | < 2.5 | ≥ 20 | COc1cc(CN(CCCn2cnc3ncncc32)Cc2cn(C)c3ccccc3c2=O)ccn1 [Example 91, 3-({[(2-methoxypyridin-4-yl)methyl][3-(7H-purin-7-yl)propyl]amino}methyl)-1-methyl-1,4-dihydroquinolin-4-one] |
| ≥ 20 | < 2.5 | ≥ 20 | O=c1c(CN(CCCn2ccnc2)Cc2ccncc2)c[nH]c2ccccc12 [Example 74, 3-({[3-(1H-imidazol-1-yl)propyl][(pyridin-4-yl)methyl]amino}methyl)-1,4-dihydroquinolin-4-one] |
| ≤ 10 | > 2.5 | ≤ 10 | O=c1c(CN(CCCn2ccnc2)Cc2ccncc2)coc2c1ccc1ccccc12 [Example 7, 3-({[3-(1H-imidazol-1-yl)propyl](pyridin-4-ylmethyl)amino}methyl)-4H benzo[h]chromen-4-one] |
| ≤ 10 | > 2.5 | 10 to 20 | O=c1c(CN(CCCn2cnc3ccccc32)Cc2ccncc2)coc2ccccc12 [Example 17, 3-({[3-(1H-1,3-benzodiazol-1-yl)propyl](pyridin-4-ylmethyl)amino}methyl)-4H-chromen-4-one] |
| ≤ 10 | > 2.5 | ≤ 10 | COc1cc(CN(CCCn2cnc3cncnc32)Cc2c(C)oc3cc(Br)c(F)cc3c2=O)ccn1 [Example 78, 7-bromo-6-fluoro-3-({[(2-methoxypyridin-4-yl)methyl][3-(9H-purin-9-yl)propyl]amino}methyl)-2-methyl-4H-chromen-4-one] |
| 10 to 20 | > 2.5 | ≥ 20 | COc1ccc(-c2ccc3c(=O)c(CN(CCCn4ccnc4)Cc4ccncc4)coc3c2)cc1 [Example 32, 3-({[3-(1H-imidazol-1-yl)propyl](pyridin-4-ylmethyl)amino}methyl)-7-(4-methoxyphenyl)-4H-chromen-4-one] |
| ≤ 10 | > 2.5 | ≤ 10 | COc1cc(CN(CCCn2ccnc2)Cc2coc3c(C)c(C)ccc3c2=O)ccn1 [Example 51, 3-({[3-(1H-imidazol-1-yl)propyl][(2-methoxypyridin-4-yl)methyl]amino}methyl)-7,8-dimethyl-4H-chromen-4-one] |
| ≤ 10 | > 2.5 | ≤ 10 | COc1cc(CN(CCCn2cnc3ccccc32)Cc2cn(C)c3ccccc3c2=O)ccn1 [Example 82, 3-({[3-(1H-1,3-benzodiazol-1-yl)propyl][(2-methoxypyridin-4-yl)methyl]amino}methyl)-1-methyl-1,4-dihydroquinolin-4-one] |
| ≥ 20 | < 2.5 | ≥ 20 | COc1cc(CN(CCCn2cc(C(N)=O)nn2)Cc2cn(C)c3ccccc3c2=O)ccn1 [Example 103, 1-(3-{[(2-methoxypyridin-4-yl)methyl][(1-methyl-4-oxo-1,4-dihydroquinolin-3-yl)methyl]amino}propyl)-1H-1,2,3-triazole-4-carboxamide] |
| ≤ 10 | > 2.5 | 10 to 20 | COc1cc(CN(CCCc2cccnc2)Cc2cn(C3CC3)c3cc(F)c(F)cc3c2=O)ccn1 [Example 95, 1-cyclopropyl-6,7-difluoro-3-({[(2-methoxypyridin-4-yl)methyl][3-(pyridin-3-yl)propyl]amino}methyl)-1,4-dihydroquinolin-4-one] |
| ≤ 10 | > 2.5 | ≤ 10 | Cc1oc2cc(F)c(F)cc2c(=O)c1CN(CCCn1cnc2ccccc21)Cc1ccncc1 [Example 99, 3-({[3-(1H-1,3-benzodiazol-1-yl)propyl][(pyridin-4-yl)methyl]amino}methyl)-6,7-difluoro-2-methyl-4H-chromen-4-one] |
| ≤ 10 | > 2.5 | ≤ 10 | COc1cccc(-c2ccc3c(=O)c(CN(CCCn4ccnc4)Cc4ccncc4)coc3c2)c1 [Example 40, 3-({[3-(1H-imidazol-1-yl)propyl][(pyridin-4-yl)methyl]amino}methyl)-7-(3-methoxyphenyl)-4H-chromen-4-one] |
| ≤ 10 | > 2.5 | ≤ 10 | COc1cc(CN(Cc2cn(C)c3ccccc3c2=O)C(C)CCc2cccnc2)ccn1 (stereo not drawn) [Example 97, 3-({[(2-methoxypyridin-4-yl)methyl][4-(pyridin-3-yl)butan-2-yl]amino}methyl)-1-methyl-1,4-dihydroquinolin-4-one] |
| 10 to 20 | < 2.5 | ≥ 20 | Cc1cc(CN(CCCn2ccnc2)Cc2coc3ccccc3c2=O)ccn1 [Example 25, 3-({[3-(1H-imidazol-1-yl)propyl][(2-methylpyridin-4-yl)methyl]amino}methyl)-4H-chromen-4-one] |
